Laboratory results from US7625875B2 (priority 2002, dated 2009).
Read-outs that look alike come from different tables or passages of the source.

Tests used:
HCV = assay: Clinical antiviral activity, serum HCV RNA (Amplicor HCV Monitor), val-mCyd daily for 15 days; settings: 100 mg
[1] = Safety in the chimpanzee model of chronic HCV infection; assay type: in vivo; settings: 10 or 20 mg/kg/day dihydrochloride PO, 7 days
Text: Chimpanzees were monitored by trained veterinarians throughout the study for weight loss, temperature, appetite, and general well being, as well as for blood chemistry profile and CBCs. […] The drug appeared to be well tolerated by all four treated animals. […] A single animal experienced an alanine aminotransferase (ALT) flare in the pretreatment period prior to the start of dosing, but the ALT levels diminished during treatment. Thus, this isolated ALT event was not attributable to drug.

Sb-1 = assay: organism not typed; assay type: cell-based, Sabin type 1 poliomyelitis virus; settings: read-out: Sb-1

SMILES: CC(C)C(N)C(=O)OC1[C@@H](CO)O[C@@H](n2ccc(N)nc2=O)[C@@]1(C)O (stereo partly drawn) [val-mCyd, 2-Amino-3-methyl-butyric acid 5-(4-amino-2-oxo-2H-pyrimidine-1-yl)-4-hydroxy-2 hydroxy-methyl-4-methyl-tetrahydro-furan-3-yl ester]
- Change from baseline (Day 1) in Log10 HCV RNA, median (HCV; Day 8): −0.20 log10
- HCV RNA in Log10 scale, mean (HCV; Day 8): 6.42 log10
- HCV RNA in Log10 scale, median (HCV; Day 8): 6.59 log10
- Change from baseline (Day 1) in Log10 HCV RNA, mean (HCV; Day 11): −0.32 log10
- Change from baseline (Day 1) in Log10 HCV RNA, median (HCV; Day 11): −0.28 log10
- HCV RNA in Log10 scale, mean (HCV; Day 11): 6.36 log10
- HCV RNA in Log10 scale, median (HCV; Day 11): 6.56 log10
- Change from baseline (Day 1) in Log10 HCV RNA, mean (HCV; Day 15): −0.38 log10
- Change from baseline (Day 1) in Log10 HCV RNA, median (HCV; Day 15): −0.43 log10
- HCV RNA in Log10 scale, mean (HCV; Day 15): 6.30 log10
- HCV RNA in Log10 scale, median (HCV; Day 15): 6.41 log10
- Change from baseline (Day 1) in Log10 HCV RNA, mean (HCV; Day 16): −0.39 log10
- Change from baseline (Day 1) in Log10 HCV RNA, median (HCV; Day 16): −0.49 log10
- HCV RNA in Log10 scale, mean (HCV; Day 16): 6.23 log10
- HCV RNA in Log10 scale, median (HCV; Day 16): 6.40 log10
- Change from baseline (Day 1) in Log10 HCV RNA, mean (HCV; Day 17): −0.18 log10
- Change from baseline (Day 1) in Log10 HCV RNA, median (HCV; Day 17): −0.24 log10
- HCV RNA in Log10 scale, mean (HCV; Day 17): 6.65 log10
- HCV RNA in Log10 scale, median (HCV; Day 17): 6.72 log10
- Change from baseline (Day 1) in Log10 HCV RNA, mean (HCV; Day 22): −0.15 log10
- Change from baseline (Day 1) in Log10 HCV RNA, median (HCV; Day 22): −0.19 log10
- HCV RNA in Log10 scale, mean (HCV; Day 22): 6.53 log10
- HCV RNA in Log10 scale, median (HCV; Day 22): 6.66 log10
- Change from baseline (Day 1) in Log10 HCV RNA, mean (HCV; Day 29): 0.13 log10
- Change from baseline (Day 1) in Log10 HCV RNA, median (HCV; Day 29): −0.12 log10
- HCV RNA in Log10 scale, mean (HCV; Day 29): 6.67 log10
- HCV RNA in Log10 scale, median (HCV; Day 29): 6.71 log10
- HCV RNA in Log10 scale, mean (HCV; Day −1 (pre-treatment)): 6.60 log10
- HCV RNA in Log10 scale, median (HCV; Day −1 (pre-treatment)): 6.75 log10
- mean reduction from baseline HCV viral load (HCV genotype 1; 8.3 mg/kg/day dose group, end of treatment (day 7)): 0.83 log10
- Change in baseline Log10 HCV RNA viral load (HCV genotype 1; 8.3 mpk, animal 500, site 1, Day 2): −1.156 log10
- Change in baseline Log10 HCV RNA viral load (HCV genotype 1; 8.3 mpk, animal 500, site 1, Day 5): −0.4038 log10
- Change in baseline Log10 HCV RNA viral load (HCV genotype 1; 8.3 mpk, animal 500, site 1, Day 7): −0.8051 log10
- Change in baseline Log10 HCV RNA viral load (HCV genotype 1; 8.3 mpk, animal 500, site 2, Day 2): −1.079 log10
- Change in baseline Log10 HCV RNA viral load (HCV genotype 1; 8.3 mpk, animal 500, site 2, Day 5): −0.5503 log10
- Change in baseline Log10 HCV RNA viral load (HCV genotype 1; 8.3 mpk, animal 500, site 2, Day 7): −1.063 log10
- Change in baseline Log10 HCV RNA viral load (HCV genotype 1; 8.3 mpk, animal 501, site 1, Day 2): −0.2518 log10
- Change in baseline Log10 HCV RNA viral load (HCV genotype 1; 8.3 mpk, animal 501, site 1, Day 5): −0.3618 log10
- Change in baseline Log10 HCV RNA viral load (HCV genotype 1; 8.3 mpk, animal 501, site 1, Day 7): −0.4361 log10
- Change in baseline Log10 HCV RNA viral load (HCV genotype 1; 8.3 mpk, animal 501, site 2, Day 2): −0.452 log10
- Change in baseline Log10 HCV RNA viral load (HCV genotype 1; 8.3 mpk, animal 501, site 2, Day 5): −0.7125 log10
- Change in baseline Log10 HCV RNA viral load (HCV genotype 1; 8.3 mpk, animal 501, site 2, Day 7): −0.9003 log10
- Change in baseline Log10 HCV RNA viral load (HCV genotype 1; 16.6 mpk, animal 497, site 1, Day 2): −0.7215 log10
- Change in baseline Log10 HCV RNA viral load (HCV genotype 1; 16.6 mpk, animal 497, site 1, Day 5): −0.907 log10
- Change in baseline Log10 HCV RNA viral load (HCV genotype 1; 16.6 mpk, animal 497, site 1, Day 7): −1.277 log10
- Change in baseline Log10 HCV RNA viral load (HCV genotype 1; 16.6 mpk, animal 497, site 2, Day 2): −0.8556 log10
- Change in baseline Log10 HCV RNA viral load (HCV genotype 1; 16.6 mpk, animal 497, site 2, Day 5): −1.02 log10
- Change in baseline Log10 HCV RNA viral load (HCV genotype 1; 16.6 mpk, animal 497, site 2, Day 7): −1.514 log10
- Change in baseline Log10 HCV RNA viral load (HCV genotype 1; 16.6 mpk, animal 498, site 1, Day 2): −0.2947 log10
- Change in baseline Log10 HCV RNA viral load (HCV genotype 1; 16.6 mpk, animal 498, site 1, Day 5): −0.2814 log10
- Change in baseline Log10 HCV RNA viral load (HCV genotype 1; 16.6 mpk, animal 498, site 1, Day 7): −0.603 log10
- Change in baseline Log10 HCV RNA viral load (HCV genotype 1; 16.6 mpk, animal 498, site 2, Day 2): −0.6585 log10
- Change in baseline Log10 HCV RNA viral load (HCV genotype 1; 16.6 mpk, animal 498, site 2, Day 5): −0.5597 log10
- Change in baseline Log10 HCV RNA viral load (HCV genotype 1; 16.6 mpk, animal 498, site 2, Day 7): −0.6914 log10
- HCV viral load (HCV genotype 1; animal 497, site 2, day 7, pretreatment 535,000): 16,500 genomes per ml
- adverse events, tolerability [1]: No adverse events due to drug were noted
- EC50 (Sb-1): 14 µM
